Data: patent US8513232B2, “Substituted spirocyclic piperidine derivatives as histamine-3 (H3) receptor ligands” (Cephalon, Inc., priority 2008, dated 2013)
Where two headings read alike, the source gives them in different places.

How the values were obtained:
[1] = target: T1, rat histamine H3 receptor (Rattus norvegicus, UniProt Q9QYN8); assay: Rat H3 radioligand binding ([3H]-N-alpha-methylhistamine, SPA)
T1 construct: encoding the entire 445-amino-acid rat histamine H3 receptor; expressed in transfected cells; membrane preparation
Procedure, shortened: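 Membranes from CHO-A3 cells stably expressing full-length rat H3 receptor (10 μg protein/well) incubated 4 h at room temperature, protected from light, with ~1 nM [3H]-N-alpha-methylhistamine and compound (0.01 nM-30 μM) in 50 mM Tris HCl pH 7.4, 5 mM MgCl2, 0.1% BSA. Binding read by SPA; 10 μM clobenpropit defined non-specific binding.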

human H3 receptor = target: T2, human H3 receptor (Homo sapiens, UniProt Q9Y5N1); assay: Human H3 radioligand binding ([3H]-N-alpha-methylhistamine, SPA)
T2 construct: expressed in transfected cells
Procedure, shortened: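 SPA competition binding on membranes from CHO cells stably expressing human H3 receptor (10 μg protein/well) with ~1 nM [3H]-N-alpha-methylhistamine and compound at 0.01 nM-30 μM. Incubation 4 h at room temperature in 50 mM Tris-HCl pH 7.4, 5 mM MgCl2, 0.1% BSA; non-specific binding defined with 10 μM clobenpropit.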

[2] = rat H3 binding, Table D, read-out: Rat H3 Ki
[3] = human H3 binding, Table D, read-out: Human H3 Ki
[4] = Rat H3 binding, Table B, Examples 136-362, read-out: rat H3 binding Ki
[5] = Human H3 binding, Table B, Examples 136-362, read-out: hum H3 binding Ki
[6] = Table C, rat H3 binding, read-out: Rat H3 Ki
[7] = Table C, human H3 binding, read-out: Human H3 Ki

T1 sequence (Q9QYN8 whole entry): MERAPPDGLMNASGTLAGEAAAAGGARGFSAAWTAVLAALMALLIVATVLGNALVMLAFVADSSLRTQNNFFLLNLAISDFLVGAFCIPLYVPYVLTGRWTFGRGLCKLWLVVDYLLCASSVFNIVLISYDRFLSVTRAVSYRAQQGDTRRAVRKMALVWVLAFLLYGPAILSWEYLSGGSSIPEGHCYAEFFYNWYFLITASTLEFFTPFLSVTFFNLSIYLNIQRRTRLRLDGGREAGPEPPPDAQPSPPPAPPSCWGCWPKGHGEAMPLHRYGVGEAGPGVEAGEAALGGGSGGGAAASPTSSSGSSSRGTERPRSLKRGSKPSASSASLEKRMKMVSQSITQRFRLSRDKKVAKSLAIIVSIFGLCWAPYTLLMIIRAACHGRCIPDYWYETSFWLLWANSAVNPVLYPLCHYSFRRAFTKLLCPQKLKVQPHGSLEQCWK
T2 sequence (Q9Y5N1 whole entry): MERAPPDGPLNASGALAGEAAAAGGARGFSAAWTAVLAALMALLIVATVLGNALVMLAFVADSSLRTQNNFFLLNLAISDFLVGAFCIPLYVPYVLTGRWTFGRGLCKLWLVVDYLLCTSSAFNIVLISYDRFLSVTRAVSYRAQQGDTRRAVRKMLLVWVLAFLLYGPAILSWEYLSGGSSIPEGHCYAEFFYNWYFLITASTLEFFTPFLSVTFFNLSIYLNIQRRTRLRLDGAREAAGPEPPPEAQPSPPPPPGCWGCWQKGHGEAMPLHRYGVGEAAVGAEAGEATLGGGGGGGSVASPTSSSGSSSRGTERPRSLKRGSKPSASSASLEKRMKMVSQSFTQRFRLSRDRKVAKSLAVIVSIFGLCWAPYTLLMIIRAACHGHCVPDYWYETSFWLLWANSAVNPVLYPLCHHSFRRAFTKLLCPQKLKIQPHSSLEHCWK

| Compound | melting point | Ki [1, 2] [nM] | Ki (human H3 receptor; [3]) [nM] | Ki [1, 4] [nM] | Ki (human H3 receptor; [5]) [nM] | other results |
| --- | --- | --- | --- | --- | --- | --- |
| NC(=O)c1ccc(-c2ccc3c(c2)COC2(CCN(C4CCC4)CC2)O3)c(Cl)c1 [Example 715] | 112 to 114 °C | < 200 | < 200 | – | – | – |
| c1ncc(COc2ccc3c(c2)CCC2(CCN(C4CCC4)CC2)O3)s1 [Example 574] | 85 to 87 °C | < 200 | < 200 | – | – | – |
| CCSc1c[nH]c(=O)cc1-c1ccc2c(c1)COC1(CCN(C3CCC3)CC1)O2 [Example 765] | 85 to 88 °C | < 200 | < 200 | – | – | – |
| COc1cc(Oc2ccc3c(c2)CCC2(CCN(C4CCC4)CC2)O3)ccn1 [Example 486] | 125 to 127 °C | – | – | – | – | Ki ([1]; read-out: Rat H3 kI): < 200 nM; Ki (human H3 receptor; read-out: Human H3 Ki): < 200 nM |
| O=C(Nc1ccc2c(c1)COC1(CCN(C3CCC3)CC1)O2)c1cncs1 [Example 271] | 222 to 224 °C | – | – | < 200 | < 200 | – |
| c1ccc(CN2CCN(c3ccc4c(c3)CCC3(CCN(C5CCC5)CC3)O4)CC2)cc1 [Example 365] | 292 to 293 °C | – | – | – | – | Ki [1, 6]: < 200 nM; Ki (human H3 receptor; [7]): < 200 nM |
| COc1ccc(/C=C/c2ccc3c(c2)COC2(CCN(C4CCC4)CC2)O3)cn1 [Example 502] | 144 to 146 °C | – | – | – | – | Ki ([1]; read-out: Rat H3 kI): < 200 nM; Ki (human H3 receptor; read-out: Human H3 Ki): < 200 nM |
| O=c1ccc(Oc2ccc3c(c2)CCC2(CCN(C4CCC4)CC2)O3)c[nH]1 [Example 485] | 284 to 286 °C | – | – | – | – | Ki ([1]; read-out: Rat H3 kI): < 200 nM; Ki (human H3 receptor; read-out: Human H3 Ki): < 200 nM |
| FC(F)(F)c1ccc(N2CCN(c3ccc4c(c3)CCC3(CCN(C5CCC5)CC3)O4)CC2)nc1 [Example 372] | 212 to 213 °C | – | – | – | – | Ki [1, 6]: < 200 nM; Ki (human H3 receptor; [7]): < 200 nM |
| O=C(Nc1cccc(Cl)c1)Nc1ccc2c(c1)COC1(CCN(C3CCC3)CC1)O2 [Example 186] | 216 to 217 °C | – | – | < 200 | < 200 | – |
| Cc1ccc(C#N)c(Nc2ccc3c(c2)COC2(CCN(C4CCC4)CC2)O3)n1 [Example 236] | 56 to 58 °C | – | – | < 200 | < 200 | – |
| COc1ccc(-c2cc3c(cc2C)OC2(CCN(C4CCC4)CC2)OC3)cn1 [Example 544] | 96 to 98 °C | – | – | – | – | Ki ([1]; read-out: Rat H3 kI): < 200 nM; Ki (human H3 receptor; read-out: Human H3 Ki): < 200 nM |
| COCCn1cc(-c2ccc3c(c2)COC2(CCN(C4CCC4)CC2)O3)ccc1=O [Example 708] | 141 to 142 °C | < 200 | < 200 | – | – | – |
| O=C1N(c2ccncc2)CCN1c1ccc2c(c1)COC1(CCN(C3CCC3)CC1)O2 [Example 178] | 185 to 189 °C | – | – | < 200 | < 200 | – |
| CCc1cc(OC)ncc1-c1ccc2c(c1)COC1(CCN(C3CCC3)CC1)O2 [Example 802] | 156 to 160 °C | < 200 | < 200 | – | – | – |
| O=c1ccc(-c2ccc3c(c2)CCC2(CCN(C4CCC4)CC2)O3)c[nH]1 [Example 429] | 260 to 262 °C | – | – | – | – | Ki [1, 6]: < 200 nM; Ki (human H3 receptor; [7]): < 200 nM |
| CC(=O)N(Cc1ccsc1)c1ccc2c(c1)COC1(CCN(C3CCC3)CC1)O2 [Example 352] | 101 to 102 °C | – | – | < 200 | < 200 | – |
| OC1CCN(c2ccc3c(c2)CCC2(CCN(C4CCC4)CC2)O3)CC1 [Example 405] | > 265 °C (dec.) | – | – | – | – | Ki [1, 6]: < 200 nM; Ki (human H3 receptor; [7]): < 200 nM |
| COc1nc(C)ccc1-c1ccc2c(c1)COC1(CCN(C3CCC3)CC1)O2 [Example 746] | 61 to 63 °C | < 200 | < 200 | – | – | – |
| CNC(=O)c1ccc(-c2ccc3c(c2)COC2(CCN(C4CCC4)CC2)O3)c(Cl)c1 [Example 685] | 211 to 213 °C | < 200 | < 200 | – | – | – |
| O=C(Nc1ccccc1)N1CCN(c2ccc3c(c2)COC2(CCN(C4CCC4)CC2)O3)CC1 [Example 276] | 194.6 to 195.8 °C | – | – | < 200 | < 200 | – |
| CN(C)C(=O)c1ccc(COc2ccc3c(c2)CCC2(CCN(C4CCC4)CC2)O3)nc1 [Example 674] | 75 to 78 °C | < 200 | < 200 | – | – | – |
| O=C1N(c2ccncc2)CCN1c1ccc2c(c1)CCC1(CCN(C3CCC3)CC1)O2 [Example 210] | 208 to 210 °C | – | – | < 200 | < 200 | – |
| Cc1cc2c(cc1-c1ccc(=O)[nH]c1)COC1(CCN(C3CCC3)CC1)O2 [Example 543] | 239 to 240 °C | – | – | – | – | Ki ([1]; read-out: Rat H3 kI): 200 to 1000 nM; Ki (human H3 receptor; read-out: Human H3 Ki): < 200 nM |
| CC(=O)N(Cc1ccncc1)c1ccc2c(c1)COC1(CCN(C3CCC3)CC1)O2 [Example 250] | 63 to 65 °C | – | – | < 200 | < 200 | – |
